Test [1] relates to S. aureus. Kind of test: Tertiary stage: antimicrobial activity (ET50/MIC) of extract of degradation products of antibiotic-impregnated ORC pads, single or combination. The format is cell-based, Staphylococcus aureus. As to conditions: for MIC times higher than that of the primary stage MIC: antibiotic impregnated onto ORC pad; for Fold reduction in MIC concentration: primary MIC (antibiotic alone) versus antibiotic-impregnated ORC (tertiary) MIC. As for the experimental part:
Solutions comprising different concentrations of antibiotics to be tested were prepared in methanol.
Blank ORC pads of dimensions 1×1.5 inch, weighing between 65-75 mg (70 mg on average), in duplicate, were immersed in the antibiotic solutions and then dried using a rotary evaporator to provide extract of degradation products of antibiotic-impregnated ORC pads.
15 ml test tubes containing 3 ml of sterile PBS were prepared, and the antibiotic-impregnated ORC pads were immersed in the tubes and incubated for 3-5 hours at ambient temperature on a roller mixer (Stuart, Cat#SRT9D).
Each of the above extracts was filtered out using a sterile 0.8/0.2 μm syringe filter into a clean 15 ml tube. These extraction fluids are referred to herein as “extract of degradation products of antibiotic-impregnated ORC”.
Briefly, ORC pads weighing on average 70 mg each were impregnated with the selected antibiotic. Extracts of degradation products of antibiotic-impregnated ORC were prepared by immersion and incubation in 3 ml of sterile PBS for 3 hours at ambient temperature. The ORC degeneration products were then removed, and any remaining ORC particles were filtered out using a […] syringe filter. This extraction fluid was then diluted 10-fold into Muller Hinton growth medium containing bacteria. Bacterial growth was monitored every 20 min for a total of 18 hours according to optical density (OD) at 600 nm, using an ELISA reader.
Since the study included many possible combinations of two antibiotics, each with their own different concentration range, a matrix of possible antibiotic concentrations was designed, and degradation products of ORC were prepared accordingly (see Table 10). Since all the possible combinations could not be fitted into one 96 well plate, a series of MIC experiments were carried out.

For test [2], the system named is S. aureus. As to conditions: cited from earlier work.

“And” between values parts separate entries of the source, which are not always exact repeats. Identical values can stand only once. Some results are limits rather than exact numbers.

On to `CO[C@H]1/C=C/O[C@@]2(C)Oc3c(C)c(O)c4c(O)c(c(/C=N/N5CCN(C)CC5)c(O)c4c3C2=O)NC(=O)/C(C)=C\C=C\[C@H](C)[C@H](O)[C@@H](C)[C@@H](O)[C@@H](C)[C@H](OC(C)=O)[C@@H]1C` [Rifampin, rifampin], for which the “Change of antimicrobial activity when impregnated onto the ORC pad versus first stage MIC” value in test [1] was “impaired”. The “MIC times higher than that of the primary stage MIC” value in test [1] is on record as 50 times; in test [1] (listed as rifampin) it was “about 50 times”. Moreover, the ET50 in test [1] (impregnated ORC extract, minocycline 0.00 ng/ml, rifampin 73.29 ng/ml) is 406.8 min; in test [1] (impregnated ORC extract, minocycline 0.00 ng/ml, rifampin 146.58 ng/ml) it was 442.3 min; in test [1] (impregnated ORC extract, minocycline 0.00 ng/ml, rifampin 293.16 ng/ml) it was 450.4 min; in test [1] (impregnated ORC extract, minocycline 0.00 ng/ml, rifampin 366.45 ng/ml), 418.1 min; in test [1] (rifampin-impregnated ORC extract, impregnation fluid 50 μg/ml, 0.015705 % on ORC, 366.45 ng/ml in MIC), 643 min; in test [1] (rifampin-impregnated ORC extract, impregnation fluid 100 μg/ml, 0.03141 % on ORC, 732.9 ng/ml in MIC) it was 1396 min. Also, the ET50 in test [1] (rifampin-impregnated ORC extract, impregnation fluid 150 μg/ml, 0.047115 % on ORC, 1099.35 ng/ml in MIC) was greater than 2000 min; in test [1] (rifampin-impregnated ORC extract, impregnation fluid 200 μg/ml, 0.06282 % on ORC, 1465.8 ng/ml in MIC), greater than 2000 min. Also, the “Fold reduction in MIC concentration” value in test [1] came to 0.019. Moreover, the “MIC values for S. aureus according to the literature” value in test [2] is 4 to 15 ng/mL.

For `CN(C)c1ccc(O)c2c1C[C@H]1C[C@H]3[C@H](N(C)C)C(O)=C(C(N)=O)C(=O)[C@@]3(O)C(O)=C1C2=O` [Minocycline, minocycline], the “MIC fold lower in the presence of degradation products of ORC than in their absence” value in test [1] was “at least 5.8 fold”. In test [1] (combination with rifampin or clindamycin, with ORC degradation products), the “Fold reduction of the MIC for minocycline with at least one more antibiotic impregnated on ORC, versus minocycline alone” value turned out to be 200 fold. Moreover, the ET50 in test [1] (impregnated ORC extract, minocycline 1.26 ng/ml, clindamycin 0.00 ng/ml) is 637.6 min; in test [1] (impregnated ORC extract, minocycline 1.26 ng/ml, rifampin 0.00 ng/ml), 585.4 min; in test [1] (impregnated ORC extract, minocycline 2.52 ng/ml, clindamycin 0.00 ng/ml) it was 1072 min; in test [1] (impregnated ORC extract, minocycline 2.52 ng/ml, rifampin 0.00 ng/ml), 799.9 min; in test [1] (impregnated ORC extract, minocycline 5.04 ng/ml, clindamycin 0.00 ng/ml), greater than 2000 min; in test [1] (impregnated ORC extract, minocycline 5.04 ng/ml, rifampin 0.00 ng/ml) it was greater than 2000 min. In addition, the ET50 in test [1] (impregnated ORC extract, minocycline 6.30 ng/ml, clindamycin 0.00 ng/ml) was greater than 2000 min; in test [1] (impregnated ORC extract, minocycline 6.30 ng/ml, rifampin 0.00 ng/ml), greater than 2000 min; in test [1] (minocycline-impregnated ORC extract, impregnation fluid 5 μg/ml, 0.00027 % on ORC, 6.30 ng/ml in MIC), 1145 min; in test [1] (minocycline-impregnated ORC extract, impregnation fluid 10 μg/ml, 0.00054 % on ORC, 12.60 ng/ml in MIC), 2000 min; in test [1] (minocycline-impregnated ORC extract, impregnation fluid 20 μg/ml, 0.00108 % on ORC, 25.20 ng/ml in MIC) it was greater than 2000 min; in test [1] (minocycline-impregnated ORC extract, impregnation fluid 40 μg/ml, 0.00216 % on ORC, 50.40 ng/ml in MIC) it was greater than 2000 min. Moreover, in test [1], the “Fold reduction in MIC concentration” value was 20 and 19.85.

These data come from patent publication US20190184069A1, “ANTIMICROBIAL COMPOSITIONS COMPRISING MINOCYCLINE AND DEGRADATION PRODUCTS OF OXIDIZED CELLULOSE” (Omrix Biopharmaceuticals Ltd., priority 2017, published 2019).
